Laboratory results from ChEMBL document CHEMBL4680163, “Discovery of potent epidermal growth factor receptor (EGFR) degraders by proteolysis targeting chimera (PROTAC)” (Eur J Med Chem, 2020).

test system: HCC827; assay: Antiproliferative activity against human HCC827 cells harboring EGFRDel19 mutant assessed as reduction in cell viability incubated for 72 hrs by MTT assay; type: functional, cell-based; settings: HCC827, 72 h

Structure (SMILES) | IC50 [nM]
Cc1ncsc1-c1ccc(CNC(=O)[C@@H]2C[C@@H](O)CN2C(=O)[C@@H](N)C(C)(C)C)cc1 | > 10000
CN(C)C1CCN(c2ccc(Nc3cc4c(N5CCN(CCCCCCCC(=O)Nc6cccc7c6CN(C6CCC(=O)NC6=O)C7=O)CC5)nc(Nc5ccc(F)cc5)nc4cn3)nc2)CC1 (stereo not given) | 1450
Cc1ncsc1-c1ccc(CNC(=O)[C@@H]2C[C@@H](O)CN2C(=O)[C@@H](NC(=O)CCCCN2CCN(c3ccc(Nc4cc5c(N6CCC(CO)CC6)nc(Nc6ccc(F)cc6)nc5cn4)nc3)CC2)C(C)(C)C)cc1 | 1490
O=C1CCC(N2Cc3c(NC(=O)CCCCCN4CCN(c5ccc(Nc6cc7c(N8CCC(CO)CC8)nc(Nc8ccc(F)cc8)nc7cn6)nc5)CC4)cccc3C2=O)C(=O)N1 (stereo not given) | > 10000
O=C1CCC(N2Cc3c(NC(=O)CCCCCCN4CCN(c5ccc(Nc6cc7c(N8CCC(CO)CC8)nc(Nc8ccc(F)cc8)nc7cn6)nc5)CC4)cccc3C2=O)C(=O)N1 (stereo not given) | 1210

Further lines, results first:

IC50 [nM] | Structure (SMILES)
4630 | CN(C)C1CCN(c2ccc(Nc3cc4c(N5CCN(CC(=O)NCCC(=O)Nc6cccc7c6CN(C6CCC(=O)NC6=O)C7=O)CC5)nc(Nc5ccc(F)cc5)nc4cn3)nc2)CC1 (stereo not given)
> 10000 | O=C1CCC(N2Cc3c(NC(=O)CCCCN4CCN(c5ccc(Nc6cc7c(N8CCC(CO)CC8)nc(Nc8ccc(F)cc8)nc7cn6)nc5)CC4)cccc3C2=O)C(=O)N1 (stereo not given)
> 10000 | Nc1cccc2c1CN(C1CCC(=O)NC1=O)C2=O (stereo not given) [LENALIDOMIDE]
2760 | O=C(CN1CCN(c2ccc(Nc3cc4c(N5CCC(CO)CC5)nc(Nc5ccc(F)cc5)nc4cn3)nc2)CC1)NCCC(=O)Nc1cccc2c1CN(C1CCC(=O)NC1=O)C2=O (stereo not given)

test system: A-431; assay: Antiproliferative activity against human A-431 cells harboring EGFR assessed as reduction in cell viability incubated for 72 hrs by MTT assay; type: functional, cell-based; settings: A-431, 72 h

IC50 [nM] | Structure (SMILES)
> 10000 | CN(C)C1CCN(c2ccc(Nc3cc4c(N5CCN(CC(=O)NCCC(=O)Nc6cccc7c6CN(C6CCC(=O)NC6=O)C7=O)CC5)nc(Nc5ccc(F)cc5)nc4cn3)nc2)CC1 (stereo not given)
